Source: PMC8692984 (Frontiers in Pharmacology, 2021)
Where “and” joins values, the source holds several entries; their conditions need not be identical. Identical values can stand only once. Bridge positions count the residues as written; N and C are the ends. Peptide text beside a SMILES is read from it.

What was measured:
[1] = target: T1, α7 nAChRs (Homo sapiens, UniProt P36544)
[2] = target: T1, α7 nAChRs; remark: listed apart in the source
[3] = target: Ls-AChBP (Lymnaea stagnalis, UniProt P58154); assay: biochemical; conditions: SEM
Ls-AChBP, sequence (P58154 20-229 limits assumed): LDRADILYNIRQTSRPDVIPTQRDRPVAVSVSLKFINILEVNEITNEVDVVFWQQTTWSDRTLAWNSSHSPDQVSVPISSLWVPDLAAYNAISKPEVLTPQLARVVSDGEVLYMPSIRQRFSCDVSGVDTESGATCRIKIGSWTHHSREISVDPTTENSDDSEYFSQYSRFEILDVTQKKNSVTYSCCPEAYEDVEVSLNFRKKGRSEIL

T1 sequence (P36544 23-502): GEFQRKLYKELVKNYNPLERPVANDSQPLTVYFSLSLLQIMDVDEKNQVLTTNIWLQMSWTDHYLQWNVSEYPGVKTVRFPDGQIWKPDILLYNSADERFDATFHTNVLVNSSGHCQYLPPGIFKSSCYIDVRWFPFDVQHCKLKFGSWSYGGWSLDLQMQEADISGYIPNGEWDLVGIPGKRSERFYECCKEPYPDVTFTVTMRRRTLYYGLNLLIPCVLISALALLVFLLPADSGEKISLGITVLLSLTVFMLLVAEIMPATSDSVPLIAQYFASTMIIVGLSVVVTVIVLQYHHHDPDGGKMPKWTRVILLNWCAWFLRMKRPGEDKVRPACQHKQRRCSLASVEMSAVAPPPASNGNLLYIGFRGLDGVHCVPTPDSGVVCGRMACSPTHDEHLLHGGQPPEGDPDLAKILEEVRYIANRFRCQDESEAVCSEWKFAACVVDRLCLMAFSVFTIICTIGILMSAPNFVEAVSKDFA

CC[C@H](C)[C@@H]1NC(=O)[C@H](Cc2c[nH]cn2)NC(=O)[C@@H]2CCCN2C(=O)[C@H](CC(N)=O)NC(=O)[C@H](CC(N)=O)NC(=O)[C@H](C(C)C)NC(=O)[C@H](CC(N)=O)NC(=O)[C@@H]2CSSC[C@H](NC(=O)CN)C(=O)N[C@@H](CSSC[C@@H](C(=O)NCC(N)=O)NC1=O)C(=O)N[C@@H](CO)C(=O)N[C@@H](Cc1c[nH]cn1)C(=O)N1CCC[C@H]1C(=O)N[C@@H](C)C(=O)N2 [OmIA] (H-GCCSHPACNVNNPHICG-NH2; disulfide 2-8, 3-16)
extent of inhibition of α7 nAChR responses to choline [1]: ~50%
residual response at TQS-α7 nAChRs [2]: ~15%

CC[C@H](C)[C@@H]1NC(=O)[C@H](Cc2cnc[nH]2)NC(=O)[C@@H]2CCCN2C(=O)[C@H](CC(N)=O)NC(=O)[C@H](CC(N)=O)NC(=O)[C@H](C(C)C)NC(=O)[C@H](CC(N)=O)NC(=O)[C@@H]2CSSC[C@H](NC(=O)CN)C(=O)N[C@@H](CSSC[C@@H](C(=O)NCC(N)=O)NC1=O)C(=O)N[C@@H](CO)C(=O)N[C@@H](Cc1cnc[nH]1)C(=O)N1CCC[C@H]1C(=O)N[C@@H](C)C(=O)N2 [OmIA] (H-GCCSHPACNVNNPHICG-NH2; disulfide 2-8, 3-16)
IC50 [3]: 280 ± 70 nM

CC[C@H](C)[C@@H]1NC(=O)[C@H](Cc2c[nH]cn2)NC(=O)[C@@H]2CCCN2C(=O)[C@H](CC(N)=O)NC(=O)[C@H](CC(N)=O)NC(=O)[C@H](C(C)C)NC(=O)[C@H](Cc2c[nH]cn2)NC(=O)[C@@H]2CSSC[C@H](NC(=O)CN)C(=O)N[C@@H](CSSC[C@@H](C(=O)NCC(N)=O)NC1=O)C(=O)N[C@@H](CO)C(=O)N[C@@H](Cc1c[nH]cn1)C(=O)N1CCC[C@H]1C(=O)N[C@@H](C)C(=O)N2 [[N9H]OmIA] (H-GCCSHPACHVNNPHICG-NH2; disulfide 2-8, 3-16)
extent of inhibition of α7 nAChR responses to choline [1]: ~50%
residual response at TQS-α7 nAChRs [2]: ~15%
IC50 [3]: 730 ± 50 nM

CC[C@H](C)[C@@H]1NC(=O)[C@H](Cc2c[nH]cn2)NC(=O)[C@@H]2CCCN2C(=O)[C@H](CC(N)=O)NC(=O)[C@H](CC(N)=O)NC(=O)[C@H](C)NC(=O)[C@H](CC(N)=O)NC(=O)[C@@H]2CSSC[C@H](NC(=O)CN)C(=O)N[C@@H](CSSC[C@@H](C(=O)NCC(N)=O)NC1=O)C(=O)N[C@@H](CO)C(=O)N[C@@H](Cc1c[nH]cn1)C(=O)N1CCC[C@H]1C(=O)N[C@@H](C)C(=O)N2 [[V10A]OmIA] (H-GCCSHPACNANNPHICG-NH2; disulfide 2-8, 3-16)
Choline EC50 ± SEM at PNU120596-α7 nAChRs in the presence of peptide [1]: 7 ± 1.20 and 8 ± 0.47 and 11 ± 1.20
mode of antagonism at PNU120596-α7 nAChRs [1]: fully insurmountable antagonism
Fraction 2 ± SEM at PNU120596-modified α7 nAChRs ([1]; SEM): 0.58 ± 0.04 and 0.57 ± 0.11 and 0.37 ± 0.04
Choline EC50 ± SEM at TQS-α7 nAChRs in the presence of peptide [2]: 3 ± 0.20 and 4 ± 1.00 and 5 ± 0.48

CC[C@H](C)[C@@H]1NC(=O)[C@H](Cc2c[nH]cn2)NC(=O)[C@@H]2CCCN2C(=O)[C@H](CC(N)=O)NC(=O)[C@H](CC(N)=O)NC(=O)[C@H](CC(C)C)NC(=O)[C@H](CC(N)=O)NC(=O)[C@@H]2CSSC[C@H](NC(=O)CN)C(=O)N[C@@H](CSSC[C@@H](C(=O)NCC(N)=O)NC1=O)C(=O)N[C@@H](CO)C(=O)N[C@@H](Cc1c[nH]cn1)C(=O)N1CCC[C@H]1C(=O)N[C@@H](C)C(=O)N2 [[V10L]OmIA] (H-GCCSHPACNLNNPHICG-NH2; disulfide 2-8, 3-16)
increase of OmIA IC50 at TQS-α7 nAChRs [2]: 10 fold
IC50 [3]: 680 ± 130 nM

CC[C@H](C)[C@@H]1NC(=O)[C@H](Cc2c[nH]cn2)NC(=O)[C@@H]2CCCN2C(=O)[C@H](CC(N)=O)NC(=O)[C@H](CC(N)=O)NC(=O)[C@H]([C@@H](C)O)NC(=O)[C@H](CC(N)=O)NC(=O)[C@@H]2CSSC[C@H](NC(=O)CN)C(=O)N[C@@H](CSSC[C@@H](C(=O)NCC(N)=O)NC1=O)C(=O)N[C@@H](CO)C(=O)N[C@@H](Cc1c[nH]cn1)C(=O)N1CCC[C@H]1C(=O)N[C@@H](C)C(=O)N2 [[V10T]OmIA] (H-GCCSHPACNTNNPHICG-NH2; disulfide 2-8, 3-16)
residual response at PNU120596-α7 nAChRs [1]: 60%
IC50 [3]: 1000 ± 50 nM
